Experimental data from article PMC7582957, “A Fluorescence Polarization-Based High-Throughput Screen to Identify the First Small-Molecule Modulators of the Human Adenylyltransferase HYPE/FICD” (International Journal of Molecular Sciences, 2020).
Changes are numbered by the printed parent chain.

Assays:
Format in all cases: biochemical
Δ45 HYPE = biological target: T1, Δ45 HYPE (Homo sapiens, UniProt Q9BVA6); assay: in-gel fluorescence autoAMPylation with Fl-ATP; settings: activator; same, with 0.1% Triton X-100
T1 construct: gene FICD; aa 46-456, TM domain deleted; His6-SUMO tag cleaved by ULP1; pSMT3, E. coli BL21-DE3-RILP; cobalt and size-exclusion purified
T1 sequence (Q9BVA6 46-456): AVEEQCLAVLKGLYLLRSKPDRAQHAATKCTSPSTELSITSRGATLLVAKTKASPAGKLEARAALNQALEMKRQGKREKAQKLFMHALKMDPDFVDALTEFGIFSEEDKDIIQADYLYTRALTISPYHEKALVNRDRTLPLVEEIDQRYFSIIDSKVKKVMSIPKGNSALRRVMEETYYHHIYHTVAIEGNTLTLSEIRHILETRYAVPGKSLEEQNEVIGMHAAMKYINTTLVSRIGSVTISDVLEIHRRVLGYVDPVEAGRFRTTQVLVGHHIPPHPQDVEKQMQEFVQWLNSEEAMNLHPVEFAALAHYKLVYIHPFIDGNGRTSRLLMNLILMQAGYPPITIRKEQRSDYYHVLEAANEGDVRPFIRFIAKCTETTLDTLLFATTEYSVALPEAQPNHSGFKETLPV

Δ102 HYPE (HYPE103-456) [1] = biological target: T2, Δ102 HYPE (HYPE103-456) (Homo sapiens, UniProt Q9BVA6); assay: fluorescence polarization autoAMPylation with Fl-ATP; settings: activator; detergent-less minimal buffer 50 mM HEPES pH 7.5, 1 mM MnCl2, 25 nM Fl-ATP, 0.4 µM enzyme, room temperature; unreliable
T2 construct: gene FICD; aa 103-456, lacks TM domain and N-terminus; His6-SUMO tag cleaved by ULP1; pSMT3, E. coli BL21-DE3-RILP; cobalt and size-exclusion purified
T2 sequence (Q9BVA6 103-456): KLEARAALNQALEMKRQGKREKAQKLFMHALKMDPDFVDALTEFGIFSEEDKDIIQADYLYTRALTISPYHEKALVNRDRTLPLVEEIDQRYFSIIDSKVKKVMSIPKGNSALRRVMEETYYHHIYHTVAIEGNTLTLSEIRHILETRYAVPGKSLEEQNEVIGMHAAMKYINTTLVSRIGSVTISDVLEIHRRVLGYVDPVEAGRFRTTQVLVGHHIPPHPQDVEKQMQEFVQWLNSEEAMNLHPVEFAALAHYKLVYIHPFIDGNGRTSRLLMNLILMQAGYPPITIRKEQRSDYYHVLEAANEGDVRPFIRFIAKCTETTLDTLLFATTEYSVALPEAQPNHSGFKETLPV
Text: fluorescence polarization autoAMPylation with Fl-ATP on Δ102 HYPE (HYPE103-456) | robust dose-dependencies among all activators, with low micromolar EC50 values

Δ102 HYPE (HYPE103-456) [2] = biological target: T3, Δ102 HYPE (HYPE103-456) (Homo sapiens, UniProt Q9BVA6, E234G); assay: as above
T3 construct: gene FICD; aa 103-456, lacks TM domain and N-terminus; His6-SUMO tag cleaved by ULP1; pSMT3, E. coli BL21-DE3-RILP; cobalt and size-exclusion purified
T3 sequence (Q9BVA6 103-456 E234G): T2 sequence (Q9BVA6 103-456) with E132G
Text: fluorescence polarization autoAMPylation with Fl-ATP on Δ102 HYPE (HYPE103-456) | I1 and I3 were in the mid-micromolar range | we obtained a low micromolar inhibitory potency for I2

| Structure (SMILES) | EC50 (Δ102 HYPE (HYPE103-456) [1]) [µM] | IC50 (Δ102 HYPE (HYPE103-456) [2]) [µM] | also measured |
| --- | --- | --- | --- |
| CC(C)(C)c1ccc(-c2cc(C[C@H]3CNCC[C@H]3CC(=O)N3CCN(c4ccc(F)cc4)CC3)no2)cc1 [A6, NAT14–350426] | – | – | in-gel fluorescence autoAMPylation with Fl-ATP (Δ45 HYPE): significant increase in bioactivity of A1 and A4–A6 (Figure 9D) |
| CCCCC(CC)CN1CN(CC(CC)CCCC)CC(C)(N)C1 (stereo not shown) [A3, Hexetidine] | 13.144 | – | – |
| CCCCCCCCCCCCCCCC[N+](C)(C)CCN(Cc1ccc(OC)cc1)c1ncccn1 [A5, Thonzonium Bromide] | 10.305 | – | – |
| CCCCCCCCCCCCCCCC(O)C(N)CO (racemic) [A2, DL-erythro-dihydrosphingosine] | 15.415 | – | – |

More lines, main results first:

| EC50 (Δ102 HYPE (HYPE103-456) [1]) [µM] | IC50 (Δ102 HYPE (HYPE103-456) [2]) [µM] | Structure (SMILES) | also measured |
| --- | --- | --- | --- |
| – | 22.5 | COc1cc(-c2ccc(N=Nc3ccc4c(S(=O)(=O)O)cc(S(=O)(=O)O)c(N)c4c3O)c(OC)c2)ccc1N=Nc1ccc2c(S(=O)(=O)O)cc(S(=O)(=O)O)c(N)c2c1O [I3, Chicago Sky Blue] | – |
| – | 30.4 | Cc1cc(-c2ccc(N=Nc3ccc4c(S(=O)(=O)O)cc(S(=O)(=O)O)c(N)c4c3O)c(C)c2)ccc1N=Nc1ccc2c(S(=O)(=O)O)cc(S(=O)(=O)O)c(N)c2c1O [I1, Evan’s Blue] | – |
| – | 0.347 | O=C(O)C1=CC(=C(c2ccc(O)c(C(=O)O)c2)c2ccc(O)c(C(=O)O)c2)C=CC1=O [I2, Aurintricarboxylic Acid] | – |
